Structures are written as SMILES.

The target in one test is T1, His-KDM5A(PHD3) (Homo sapiens, UniProt P29375).
T1 construct: KDM5A(PHD3) (1542 – 1660), encoded by a pGTLV2 vector; made in house; host or cells: E. coli Rosetta 2(DE3)pLysS
T1 sequence (P29375 1542-1660): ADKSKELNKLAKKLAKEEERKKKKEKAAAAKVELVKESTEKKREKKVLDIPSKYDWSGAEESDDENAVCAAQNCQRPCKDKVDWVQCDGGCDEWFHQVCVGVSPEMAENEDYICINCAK
The experiment in a line: AlphaScreen displacement assay, H3K4me3-Bn from His-KDM5A(PHD3). It is filed as binding. The following applies: AlphaScreen; 25 nM protein and 25 nM peptide; average ± StdDev, n ≥ 3; NM = not measurable within the solubility range; read-out: IC50 for displacement of H3K4me3-Bn from His-KDM5A(PHD3). As for the experimental part:
AlphaScreen is a homogenous bead-based assay used to study protein-protein interactions.[28] […] AlphaScreen beads were then added and incubated for 1 h. Changes in the AlphaScreen signals with increasing inhibitor concentrations were then measured to quantify the level of KDM5A(PHD3) and H3K4me3 binding, and IC50 values were determined.
His-tagged PHD finger constructs and H3K4me3-Bn peptides were diluted into AlphaScreen assay buffer (50mM HEPES, 150mM NaCl, 0.1% BSA, 0.01% Tween20, pH 7.5). An 8-point 1:2 dilution series was made for both protein and peptide. With a multichannel pipette (LTS P10), 5 µL protein was dispensed into 8 columns of a 384-well plate, followed by 5 µL of 4% DMSO in AlphaScreen assay buffer. The mixture was incubated at room temperature for 15 minutes, followed by dispensing 5 µL peptide across 8 rows of the 384-well plate, forming a cross-gradient of protein and peptide. The contents were incubated for 30 minutes at room temperature, followed by the addition of 5 µL of a mixture of AlphaScreen Streptavidin donor beads and Nickel Chelate acceptor beads in AlphaScreen assay buffer (20 µg/mL final). The samples were incubated for 60-120 minutes at room temperature in the dark, followed by measurement of luminescence on a BMG Labtech Pherastar plate reader (Software Ver. 5.30 R3, Firmware Ver. 1.21). The data was plotted in Prism Ver 7.01 (GraphPad Software, Inc.) and fitted to a linear model in order to determine the optimal concentration of protein and peptide within the linear signal range for each reader domain.
(§1) For peptide displacement assays, 5 µL of the inhibitor dilution series (at a concentration of 4% DMSO in AlphaScreen assay buffer) was pre-incubated with 5 µL of the protein at RT for 15 minutes. Peptide solution (5 µL) was added and incubated for 30 minutes at RT, followed by the addition of 5 µL of a mixture of AlphaScreen Streptavidin donor beads and Nickel Chelate acceptor beads in AlphaScreen assay buffer (20 µg/mL final). The contents were incubated for 60-120 minutes at RT in the dark, followed by measurement of luminescence on a BMG Labtech Pherastar plate reader (Software Ver. 5.30 R3, Firmware Ver. 1.21). The data was plotted in Prism Ver 7.01 (GraphPad Software, Inc.) and fitted to a Log(inhibitor) v/s response – variable slope model in order to obtain IC50 values.

The next test addresses T2, KDM7A(PHD) (Homo sapiens, UniProt Q6ZMT4).
T2 construct: made in house
T2 sequence (Q6ZMT4 37-88 limits assumed): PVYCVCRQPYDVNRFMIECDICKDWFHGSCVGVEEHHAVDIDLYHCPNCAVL
The experiment in a line: AlphaScreen displacement of H3K4me3-Bn from His-KDM7A(PHD). The test is classed as binding. The settings on record: AlphaScreen; 6.25 nM KDM7A(PHD) and 25 nM peptide; n ≥ 3; read-out: IC50 for displacement of H3K4me3-Bn from His-KDM7A(PHD). The method, then: as §1

The test system of a further test is KDM7A (PHD-JmjC). The experiment in a line: MALDI-TOF MS H3K9me2 demethylation assay, KDM7A(PHD-JmjC). The test is classed as biochemical, human. The following applies: at 100 µM, substrate H3(1–15)K9me2. As for the experimental part:
Final concentrations were: 1mM ascorbate, 50 µM (NH4)2Fe(II)(SO4)2 and 200 µM 2OG. The mixture was quenched using formic acid after 10 minutes (KDM7A) or 5 minutes (KDM7B).

In the next test the target is T3, KDM7B (PHD-JmjC) (Homo sapiens, UniProt Q9UPP1).
T3 construct: A dual-domain construct of KDM7A/B(PHD-JmjC), consisting of a JmjC domain in addition to the PHD-finger; His; made in house
T3 sequence (Q9UPP1 37-483 limits assumed): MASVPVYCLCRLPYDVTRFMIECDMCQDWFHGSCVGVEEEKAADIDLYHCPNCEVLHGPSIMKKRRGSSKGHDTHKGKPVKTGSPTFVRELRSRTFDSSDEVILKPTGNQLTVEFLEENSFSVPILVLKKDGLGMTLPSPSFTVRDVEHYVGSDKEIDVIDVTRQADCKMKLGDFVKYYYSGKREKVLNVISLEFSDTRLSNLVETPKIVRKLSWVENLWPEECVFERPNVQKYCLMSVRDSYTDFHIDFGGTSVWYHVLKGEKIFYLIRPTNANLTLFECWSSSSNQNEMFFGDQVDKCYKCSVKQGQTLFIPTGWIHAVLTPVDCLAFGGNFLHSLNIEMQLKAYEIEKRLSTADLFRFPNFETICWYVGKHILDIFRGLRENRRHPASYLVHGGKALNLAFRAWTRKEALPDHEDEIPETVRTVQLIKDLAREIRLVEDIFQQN
The experiment in a line: MALDI-TOF MS H3K9me2 demethylation assay, KDM7B(PHD-JmjC). It is filed as biochemical. The settings on record: at 100 µM; MALDI-TOF MS; substrate H3(1–5)K4me3K9me2; read-out: KDM7B (PHD-JmjC) (Catalytic), inhibition of H3K9me2 demethylation. The method, then: H3(1–15)K9me2 and H3(1–5)K4me3K9me2 were used as substrates for KDM7A(PHD-JmjC) and KDM7B(PHD-JmjC), respectively. […] For KDM7B(PHD-JmjC), inhibition was most pronounced for 1a (95%) and 2a (89%) whilst others inhibited more weakly (Table 4).
For KDM7(PHD-JmjC) assays, 2.5 µM enzyme was used, with 5 µM H3(1-15)K9me2 peptide substrate for KDM7A or H3(1-15)K4me3K9me2 for KDM7B. Final concentrations were: 1mM ascorbate, 50 µM (NH4)2Fe(II)(SO4)2 and 200 µM 2OG. The mixture was quenched using formic acid after 10 minutes (KDM7A) or 5 minutes (KDM7B).

For `CCCCc1oc2ccccc2c1C(=O)c1ccc(OCCCN(C)C)cc1` [Compound 1a, (2-Butylbenzofuran-3-yl)(4-(3-(dimethylamino)propoxy)phenyl)methanone], the IC50 on His-KDM5A(PHD3) came out at 166 ± 20 µM; at KDM7A(PHD), 333 ± 39 µM. The “KDM7A (PHD-JmjC) (Catalytic), inhibition of H3K9me2 demethylation” value with KDM7A (PHD-JmjC) is listed as 100% (100 µM). For the same compound, at KDM7B (PHD-JmjC), the inhibition at 100 µM was 95%.
With `CCCCc1oc2ccccc2c1C(=O)c1ccc(OCCC[N+](C)(C)C)cc1.[I-]` [Compound 2a, 3-(4-(2-Butylbenzofuran-3-carbonyl)phenoxy)-N,N,N-trimethylpropan-1-aminium iodide], the IC50 on His-KDM5A(PHD3) amounted to 340 ± 44 µM; at KDM7A(PHD), 86 ± 9 µM. In addition, the “KDM7A (PHD-JmjC) (Catalytic), inhibition of H3K9me2 demethylation” value with KDM7A (PHD-JmjC) is recorded as 100% (100 µM). On KDM7B (PHD-JmjC), the inhibition at 100 µM turned out to be 89%.
